Test results published in patent publication US7910747B2, “Phosphonate and phosphinate pyrazolylamide glucokinase activators” (Bristol-Myers Squibb Company, priority 2006, dated 2011).

Experiments:
[1] = biological target: T1, human glucokinase (GK) (Homo sapiens, UniProt P35557); test: Glucokinase tandem enzymatic assay; type: biochemical; conditions: 12 mM glucose; for EC50: EC50 = concentration to achieve 50% of full activation; for Emax: expressed as % of basal activation, EC50 could not be calculated from the activation curves, read-out: Maximal activation (%) Human Glucokinase @ 12 mM Glucose
T1 construct: Full-length human hepatic GK (untagged) was expressed in BL21 STAR (DE3)pLysS cells; made in house; host or cells: E. coli BL21 STAR (DE3)pLysS
T1 sequence (P35557 1-466 isoform P35557-2): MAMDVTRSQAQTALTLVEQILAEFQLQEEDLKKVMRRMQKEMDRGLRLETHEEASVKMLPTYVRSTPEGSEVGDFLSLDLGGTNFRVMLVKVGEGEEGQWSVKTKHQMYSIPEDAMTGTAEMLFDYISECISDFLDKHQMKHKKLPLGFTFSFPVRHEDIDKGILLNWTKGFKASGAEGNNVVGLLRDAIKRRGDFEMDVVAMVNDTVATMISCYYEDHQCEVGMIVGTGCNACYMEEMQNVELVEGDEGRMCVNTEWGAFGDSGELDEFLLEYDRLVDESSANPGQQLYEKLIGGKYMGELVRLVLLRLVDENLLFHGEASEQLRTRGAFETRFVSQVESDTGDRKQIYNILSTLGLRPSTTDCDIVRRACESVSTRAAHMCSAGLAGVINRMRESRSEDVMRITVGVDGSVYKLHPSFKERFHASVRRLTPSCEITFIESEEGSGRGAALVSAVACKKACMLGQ
Description: Enzymatic activity of human glucokinase (GK) was measured by incubating GK, ATP, and glucose for discrete time periods followed by quenching with EDTA (ethylenediamine tetra-acetic acid). Relative amounts of product glucose-6-phosphate (G6P) were measured by then running a detection assay using G6P dehydrogenase and measuring the conversion of ThioNAD (thio-nicotinamide adenine dinucleotide) to ThioNADH (thio-dihydronicotinamide adenine dinucleotide) at a wavelength of 405 nm. This ‘uncoupled’ enzymatic reaction is denoted as the GK ‘tandem’ assay. Activation of GK by compounds can be assessed using this assay. The GK tandem assay protocol described below was followed using a range of activator compound concentrations from 0 to 100 μM at 5 and 12 mM of glucose. […] To initiate the GK reaction, magnesium-ATP (3 mM final concentration) was added to GK in buffer (final buffer conditions of 25 mM HEPES buffer, pH 7.1, containing 1 mM dithiothreitol and 5% DMSO). The total reaction volume was 20 μL. The reaction was allowed to proceed for ten minutes and was then quenched with 5 μL EDTA; 45 mM final). […] Absorbance was read, background glucose-6-phosphate levels were subtracted, after which activation was calculated as a percentage of control activity. Control activity was determined using GK in the presence of vehicle (DMSO), with background glucose-6-phosphate subtracted. Background glucose-6-phosphate was determined by pre-quenching GK with EDTA prior to reaction initiation with ATP.
Full-length human hepatic GK (untagged) was expressed in BL21 STAR (DE3)pLysS cells (Invitrogen) at 25° C. as described by Mookhtiar et al. (1). The protein was purified essentially as described by Lange (2) with a slight modification. […] The resulting pellet was resuspended in buffer, dialyzed, and applied directly to a Q-Sepharose (Sigma) column followed by elution with a linear 100-600 mM KCl gradient. GK containing fractions were pooled, dialyzed overnight vs. 25 mM Hepes pH 7.2/1 mM MgCl2/1 mM EDTA/0.1 M KCl/1 mM DTT, then dialyzed again with same buffer with 10% glycerol added.

[2] = test system: male DIO (diet-induced obese) C57BL/6J mice; test: Oral glucose tolerance test (OGTT) in DIO mice; type: in vivo; conditions: 60 min before 2 g/kg oral glucose, DIO C57BL/6J mice; for Reduction in Glucose AUC at 30 mg/kg dose: 30 mg/kg oral
Description: […]. Mice were fasted overnight before use for experiments. A test compound or vehicle (either: 1) 40% PEG 400+10% Cremophore +50% water or 2) 10% dimethyl acetamide +10% ethanol +10% Cremophore +70% water) was given orally 60 min before oral administration of a glucose solution at a dose of 2 g/kg body weight (oral glucose tolerance test; OGTT). […].

Row | Structure (SMILES) | EC50 [1] | also measured
1 | CCO[P@](C)(=O)Cc1csc(NC(=O)c2cc(Oc3ccc(S(C)(=O)=O)cc3)cc(O[C@@H](C)COC)c2)n1 (single isomer, unassigned) [Example 54] | 49 nM | Reduction in Glucose AUC at 30 mg/kg dose [2]: 68-82%
2 | CCOP(=O)(CSc1cnc(NC(=O)[C@H](CC2CCCC2)c2ccc(S(C)(=O)=O)cc2)s1)OCC [Example 22] | 402 nM | 
3 | CCOP(=O)(CS(=O)(=O)c1cnc(NC(=O)[C@H](CC2CCCC2)c2ccc(S(C)(=O)=O)cc2)s1)OCC [Example 23] |  | Emax [1]: 150%
4 | CCOP(=O)(Cc1ccc(NC(=O)c2cc(Oc3ccc(S(C)(=O)=O)cc3)cc(O[C@@H](C)COC)c2)nc1)OCC [Example 29] | 98 nM | Reduction in Glucose AUC at 30 mg/kg dose [2]: 66-78%
5 | CCOP(=O)(Cn1ccc(NC(=O)c2cc(Oc3ccc(S(C)(=O)=O)cc3)cc(O[C@@H](C)COC)c2)n1)OCC [Example 32] | 65 nM | Reduction in Glucose AUC ([2]; 30 μmol/kg oral): 79% @ 30 μmol/kg
6 | CCOP(=O)(Cn1ccc(NC(=O)c2cc(O[C@@H](C)COC)cc(O[C@@H](C)Cc3ccccc3)c2)n1)OCC [Example 33] | 26 nM | 
7 | CCOP(=O)(/C=C/c1cnc(NC(=O)[C@H](CC2CCCC2)c2ccc(S(C)(=O)=O)cc2)s1)OCC [Example 35] |  | Emax [1]: 133%
8 | CCOP(=O)(Cc1csc(NC(=O)c2cc(Oc3ccc(S(C)(=O)=O)cc3)cc(O[C@@H](C)COC)c2)n1)OCC [Example 37] | 34 nM | Reduction in Glucose AUC at 30 mg/kg dose [2]: 88%
9 | CCOP(=O)(Cc1cnc(NC(=O)[C@H](CC2CCOCC2)c2ccc(S(=O)(=O)C3CC3)cc2)cn1)OCC [Example 44] | 564 nM | Reduction in Glucose AUC at 30 mg/kg dose [2]: 62-80%
10 | CCOP(=O)(Cc1nc(NC(=O)c2cc(Oc3ccc(S(C)(=O)=O)cc3)cc(O[C@@H](C)COC)c2)sc1Cl)OCC [Example 50] | 22 nM | 
11 | CCOP(=O)(Cc1nc(NC(=O)c2cc(Oc3ccc(S(C)(=O)=O)cc3)cc(O[C@@H](C)COC)c2)sc1Br)OCC [Example 51] | 15 nM | 
12 | COC[C@H](C)Oc1cc(Oc2ccc(S(C)(=O)=O)cc2)cc(C(=O)Nc2nc(CP(C)(=O)O)cs2)c1 [Example 56] | 534 nM | 
13 | CCOP(=O)(Cc1csc(NC(=O)c2cc(CN3CCOC3=O)cc(OC)c2)n1)OCC [Example 65] |  | Emax [1]: 162%
14 | CCOP(=O)(Cc1csc(NC(=O)Cc2ccc(OC)cc2OC)n1)OCC [Example 74] |  | Emax [1]: 142%
15 | CCOP(=O)(Cc1csc(NC(=O)c2ccc3c(c2)OCCO3)n1)OCC [Example 79] |  | Emax [1]: 133%
16 | CCOP(=O)(Cc1csc(NC(=O)c2nn(CC3CC3)c3cc(S(C)(=O)=O)ccc23)n1)OCC [Example 86] |  | Emax [1]: 141%
17 | CCOP(=O)(Cc1csc(NC(=O)c2cc(OC(C)C)cc(O[C@H]3CCN(C(C)=O)C3)c2)n1)OCC [Example 112] | 428 nM | 
18 | CCOP(=O)(Cc1csc(NC(=O)c2cc(OC(C)C)cc(O[C@H]3CCN(S(C)(=O)=O)C3)c2)n1)OCC [Example 113] | 437 nM | 
19 | CCOP(=O)(Cc1csc(NC(=O)c2cc(OC(C)C)cc(O[C@@H]3CCN(C(=O)OC)C3)c2)n1)OCC [Example 116] | 469 nM | 
20 | CCOP(=O)(Cc1csc(NC(=O)c2cc(OCC(O)c3ccccc3)cc(OC(C)C)c2)n1)OCC (centres unmarked) [Example 121] |  | Emax [1]: 126%
21 | CCOP(=O)(Cn1ccc(NC(=O)c2cc(OCC(F)(F)c3ccccc3)cc(OC(C)C)c2)n1)OCC [Example 122] | 23 nM | 
22 | CCOP(=O)(Cc1csc(NC(=O)c2cc(OCC(F)(F)c3ccccc3)cc(OC(C)C)c2)n1)OCC [Example 123] |  | Emax [1]: 135%
23 | CCOP(=O)(Cc1csc(NC(=O)c2cc(OCCSC)cc(O[C@@H](C)COC)c2)n1)OCC [Example 134] | 476 nM | 
24 | CCOP(=O)(Cc1csc(NC(=O)c2cc(O[C@@H](C)CO)cc(O[C@@H](C)Cc3ccccc3)c2)n1)OCC [Example 137] | 21 nM | 
25 | CCOP(=O)(Cc1csc(NC(=O)c2cc(OCCCS(C)(=O)=O)cc(O[C@@H](C)COC)c2)n1)OCC [Example 139] | 467 nM | 
26 | CCOP(=O)(Cc1csc(NC(=O)c2cc(O[C@@H](C)COC)cc(O[C@@H](C)Cc3ccccc3)c2)n1)OCC [Example 145] | 24 nM | Reduction in Glucose AUC at 30 mg/kg dose [2]: 71%
27 | CCOP(=O)(Cc1csc(NC(=O)c2cc(OC(C)C)cc(OC(C)C)c2)n1)OCC [Example 148] | 178 nM | Reduction in Glucose AUC at 30 mg/kg dose [2]: 60%
28 | COC[C@H](C)Oc1cc(Oc2ccc(S(C)(=O)=O)cc2)cc(C(=O)Nc2nc(CP3(=O)OCCCO3)cs2)c1 [Example 169] | 9 nM | 
